# Like-named read-outs stand apart in the source and are kept apart here.
# Key:
# [1] = test system: ethanol concentration in breath, feces, urine, blood and stomach; conditions: for ethanol concentration, Feces / ethanol concentration, Stomach: * p < 0.05
# Description: (§2) In Male Wistar rats, weighing 300 to 320 mg each, intragastric cannulas were inserted as described by Tsukamoto and French. Cannulas were tunnelled subcutaneously to the dorsal aspect of the neck and attached to infusion pumps by means of a spring-tether device and swivel allowing complete mobility of rats in metabolic cages.
# (§3) A liquid diet described by Thompson and Reitz was used.
# Concentration of ethanol in urine, which are representative of blood alcohol levels were measured daily. Rats were housed in metabolic cages that separated urine from feces, and urine was collected over 24 hours in bottles containing mineral oil to prevent evaporation.
# ANOVA or Student's t-test was used for determination of statistical significance as appropriate. […] A p value less than 0.05 was selected before the study as the level of significance.
# [2] = test system: liver and lung; conditions: glycine diet; 24 hr after LPS 10 mg/kg
# Description: d) Liver and lung specimens for histology were taken 24 hr after injection of LPS (10 mg/kg) and hematoxylin-eosin stained.
# [3] = test system: lipopolysaccharide (LPS) endotoxic shock in rats; conditions: for mortality: 5% glycine diet
# Description: (§1) The rats were then injected lipopolysaccharide (LPS; 10, 20 and 30 mg/kg resp.) from the tail vein and mortality was assessed 24 hours after the injection.
# [4] = body weight and ethanol intake during ethanol treatment; type: in vivo, Male Wistar rats; conditions: liquid glycine diets; 4 weeks of ethanol
# Description: as §2, §3
# [5] = test system: Asparate Aminotransferase (AST); conditions: for serum AST: 4 weeks, liquid control diet 183 IU/L
# Description: as §2, §3
# Blood was collected via the tail vein once a week and centrifuged. Serum was stored at -20° C. in a microtube until assayed for AST by standard enzymatic procedures.
# [6] = test system: liver (steatosis, inflammation and necrosis)
# Text: Rats underwent liver biopsy and autopsy after 2 and 4 weeks of treatment with ethanol. Livers were formalin-fixed, embedded in paraffin and stained with hematoxylin and eosin to assess steatosis, inflammation and necrosis. Liver pathology was scored as described by Nanji et al. as follows: steatosis (the percent liver cells containing fat): <25%=1+; <50%=2+; <75%=3+, >75%=4+; inflammation and necrosis: 1 focus per low-power field=1+; 2 or more=2+.
# [7] = test system: partial hepatic ischemia/reperfusion and LPS injection in rats; conditions: glycine diet 3 days; 90 min partial hepatic ischemia/reperfusion; LPS 5 mg/kg; 24 hours; p<0.05; control 0 of 4
# Description: A sublethal dose of LPS (5 mg/kg) was injected via tail vein 6 hr after reperfusion.
# [8] = test system: liver graft; conditions: added to liver graft storage solution; dogs; cited from earlier work
# [9] = test system: Kupffer cells
# [10] = test system: infection; conditions: in vivo
# [11] = test system: rat liver (previously anoxic pericentral regions); experiment: cells; conditions: for IC50: Rattus norvegicus
# Description: Animals used: Male Sprague-Dawley rats weighing between 180-210 g and fed a Purina diet. Rats were fasted for 24 h prior to surgery.
# Liver Perfusion: Rats were anesthetized with pentobarbital sodium (50 mg) before surgery and livers were removed surgically and perfused via a cannula inserted into the portal vein with Krebs-Henseleit bicarbonate buffer (pH 7.4, 37° C.) saturated with an oxygen-carbon dioxide (95:5) mixture in a non-recirculating system (Krebs-Henseleit, 1932). After surgery, livers were perfused at flow rates around 1 ml/g/min for 75 minutes (low-flow). Subsequently, livers were perfused at normal flow rates (4 ml/g/min) for 40 minutes (reflow).
# Lactate dehydrogenase (LDH): LDH activity in the perfusate was determined using standard enzymatic techniques (Bergmeyer, 1988). […] After cooling, samples were centrifuged at 1000×g for 10 minutes and the absorbance of the supernatant was determined at 535 nm. Rates of release of LDH expressed per gram wet weight of liver per hour.
# Trypan Blue Distribution Time and Histological Procedures: To assess microcirculation and cell death in the liver, trypan blue was infused into the liver at the end of all experiments at final concentrations of 0.2 mM (Belinsky et al., 1984). The time for the liver surface to turn evenly dark blue was recorded. Excess dye was removed by perfusion with Krebs-Henseleit buffer for an additional 10 minutes. Subsequently, livers were perfused with 1% paraformaldehyde for 10 minutes and fixed tissue was embedded in paraffin and processed for light microscopy. Sections were stained only with eosin, a cytoplasmic stain, so that trypan blue could be identified readily in the nuclei of damaged cells.
# All nuclei of parenchymal cells in a zone radiating five cells from either periportal or pericentral regions were identified as trypan blue-positive or negative. The percentage of staining was calculated from the number of stained nuclei divided by the total number of cells in any given region.
# Statistical Analysis: Student's-t-test or ANOVA was used where appropriate. Differences were considered significant when the p-value was less than 0.05.
# [12] = test system: suspended hepatocytes; conditions: injury by calcium ionophores or oxidative stress; cited from earlier work
# [13] = test system: variety of cells; conditions: anoxia, potassium cyanide and t-butyl hydroxide; cited from earlier work
# [14] = test system: tumour necrosis factor (TNF)
# [15] = in vivo; conditions: rat, iv, 10 mg/kg
# [16] = test system: AST (Aspartate Aminotransferase); conditions: glycine diet; LPS 10 mg/kg; survivors; untreated fed 2000 IU/L
# Description: as §1
# b) From the survivors, the liver enzyme AST (Aspartate Aminotransferase; a transaminase) was measured as indication for liver damage.
# [17] = Table 1, Mean ± S.E.M., ethanol with or without 5% glycine
# [18] = Table 1, Mean ± S.E.M., ethanol with or without 5% glycine, ** p < 0.01
# [19] = Table 1, Mean ± S.E.M., ethanol with or without 5% glycine, *** p < 0.001
# [20] = liquid 2% and 5% glycine diet, 4 weeks
smiles,measurement,setting,value
"CCO [ethanol, reference compound]","ethanol concentration, Feces",[1]; [17],82 ± 21
same,"ethanol concentration, Stomach",[1]; [17],761 ± 625
same,"ethanol concentration, Blood Tail Vein",[1]; [18],199 ± 45
same,"ethanol concentration, Blood Portal",[1]; [19],357 ± 65
same,"ethanol concentration, Breath",[1]; [19],108 ± 12
same,"ethanol concentration, Urine A.M.","[1]; rat, in vivo, po",184 ± 12
same,"urine alcohol level, upper end of cyclic fluctuation","[1]; rat, in vivo, po",greater than 300 mg/dl
NCC(=O)O [glycine],liver necrosis (histology),[2],less necrosis in the liver
same,pulmonary edema (histology),[2],less pulmonary edema
same,protection against LPS mortality,"[3]; 5% glycine diet 3 days, LPS 10 mg/kg, control 50% mortality, p<0.05",100%
same,mortality,"[3]; LPS 20 mg/kg, control 70%",30%
same,mortality,"[3]; LPS 30 mg/kg, control 100%",90%
same,"ethanol concentration, Feces",[1]; [17],15 ± 11
same,"ethanol concentration, Stomach",[1]; [17],26
same,"ethanol concentration, Blood Tail Vein",[1]; [18],21 ± 13
same,"ethanol concentration, Urine A.M.",[1]; [18],26 ± 25
same,"ethanol concentration, Blood Portal",[1]; [19],10 ± 7
same,"ethanol concentration, Breath",[1]; [19],5 ± 4
same,"ethanol concentration, Urine 24 hr",[1]; [19],24 ± 8
same,alcohol in stomach contents (in words),[1]; glycine-treated rats,reduced dramatically
same,reduction of the mean urine alcohol concentration,[1]; liquid 2% glycine diet,50%
same,reduction of the mean urine alcohol concentration,[1]; liquid 5% glycine diet,70%
same,daily urine alcohol concentration (in words),[1]; liquid glycine diets,very low but were still cyclic
same,transfer of alcohol from the stomach into the blood,"[1]; rat, in vivo",prevents the transfer of alcohol from the stomach into the blood
same,body weight,[4],no significant differences in body weight
same,increase of serum AST (in words),"[5]; both glycine treatments, every point during the study",attenuated significantly
same,serum AST,[5]; liquid 2% glycine diet,66 IU/L
same,serum AST,[5]; liquid 5% glycine diet,100 IU/L
same,fatty changes (steatosis),[6]; [20],attenuated
same,necrosis and inflammation,[6]; [20],almost totally absent
same,inflammation (statistics),[6]; liquid glycine diets,only a tendency for reduction
same,reductions of steatosis and necrosis (statistics),[6]; liquid glycine diets,statistically significantly
same,liver injury due to chronic intragastric ethanol exposure,[6]; rat,prevents liver injury
same,survival,[7],5 rats out of 6
same,survival,[8],did not improve survival
same,"ischemic/endotoxic liver and organ damage, activation of Kupffer cells",[9],prevents or at least substantially suppresses
same,protective effect compared with fish oil,[10],more profound and acute than that obtainable by fish oil treatment
same,LDH release and cell death during reperfusion (in words),[11],minimized LDH release and cell death almost completely
same,MDA production during reperfusion,[11],"tends to decrease with glycine, changes are not statistically significant"
same,oxygen uptake (indicator of mitochondrial function),[11],not altered
same,trypan blue distribution time,"[11]; 2 mM glycine, 40 minutes of reperfusion, control about 460 seconds",about 250 seconds
same,trypan blue distribution time (in words),[11]; 5 and 40 minutes after reflow,reduced significantly at 5 and 40 minutes after reflow
same,change of trypan blue distribution time at later vs earlier time point,[11]; 40 vs 5 minutes after reflow,about 2 fold
same,trypan blue distribution time,"[11]; 5 minutes after reperfusion, control 225 seconds, p<0.05, n=5",about 190 seconds
same,IC50,"[11]; 40 min, read-out: half maximal decrease of trypan blue distribution time, 40 minutes of reflow",180 µM
same,IC50,"[11]; read-out: half-maximal decrease of LDH release, rat liver, glycine infused from 10 min before reflow",180 µM
same,IC50,"[11]; read-out: half-maximal effect (trypan blue distribution time; cytoprotective effect), reflow liver perfusion",180 µM
same,"enzyme (LDH) release, dose dependence (in words)",[11]; glycine 0.06-2 mM,minimizes enzyme release in a dose-dependent manner
same,protection in the rat liver reperfusion model,[11]; physiological concentrations of 240-300 mmol (in humans),more than half maximal protection
same,protection of suspended hepatocytes,[12],not found to protect
same,cell damage,[13],reduce cell damage
same,time of serum TNF peak after injection,"[14]; 5% glycine diet, LPS 10 mg/kg, control 60 min",150 min
same,suppression of serum TNF increase,"[14]; 5% glycine diet, LPS 10 mg/kg, p<0.05, control over 6000 pg/ml",at least 50%
same,release of TNF into the systemic circulation,[14]; following endotoxic shock,significantly reduces the release of TNF
same,concentration at 6 h,[15],1730 ± 515 µM
same,AST level,[16],markedly and significantly reduced

# Source: patent US5656608A (priority 1995, dated 1997)
